Measured values published in patent US20250289785A1, “INDOLE DERIVATIVE, METHOD FOR PREPARING SAME, AND USE THEREOF” (MITOIMMUNE THERAPEUTICS INC., priority 2021, published 2025).

system: H9C2 cells; assay: Cell protection effect against t-BHP in heart cells (LDH release); assay type: cell-based; conditions: H9C2, t-BHP 40 μM, 2 hours
Procedure: In order to identify the protective effect with regard to heart cells, H9C2 cells were divided into 96-well plates by 1.5×10^4, and cultured for 24 hours. The respective wells were treated with compounds of the examples 3× serial diluted to final concentrations of […], then cultured for 15 to 20 minutes. After treating with t-BHP with a final concentration of 40 μM, culturing was performed for 2 hours. In order to identify the protective effect of each compound, a Cytotoxicity LDH assay kit [Dojindo; CK12] was used to measure the degree of extracellular secretion of LDH. To describe briefly, at the time point 2-hour treatment of the cells with t-BHIP was completed, 100 μL each of the supernatant in which the cells were placed was collected and moved to a new 96-well plate. 100 μL/well of the assay buffer included in the kit (same amount as the sample) was added, followed by wrapping with foil and reacting for 30 minutes at room temperature. Observing the change in color of the sample, 50 μL/well of stop solution was added, then an iD3 spectrometer was used to measure absorbance at 490 nm and calculate the EC50 values. The EC50 of the compounds of the examples is preferably no more than 1.0 μM, and more preferably no more than 0.3 μM.

**Q.** Which EC50 does the source give for `COCc1cc(NCC2CCOCC2)c2[nH]c(-c3ccccc3)cc2c1` [Example 3, 5-(methoxymethyl)-2-phenyl-N-(tetrahydropyran-4-ylmethyl)-1H-indol-7-amine] here?
**A.** ≤ 300 nM

**Q.** `COCc1cc(NC2CCS(=O)(=O)CC2)c2[nH]c(-c3ccccc3)cc2c1` [Example 4, N-(1,1-dioxothian-4-yl)-5-(methoxymethyl)-2-phenyl-1H-indol-7-amine] was tested. Which EC50 did it give?
**A.** ≤ 300 nM

**Q.** `COCc1cc(NC2CCN(S(C)(=O)=O)CC2)c2[nH]c(-c3ccccc3)cc2c1` [Example 5, 5-(methoxymethyl)-N-(1-methylsulfonyl-4-piperidyl)-2-phenyl-1H-indol-7-amine] was tested. Which EC50 did it give?
**A.** ≤ 300 nM

**Q.** Which EC50 does the source give for `COCc1cc(NC2CCN(C(C)=O)CC2)c2[nH]c(-c3ccccc3)cc2c1` [Example 6, 1-[4-[[5-(methoxymethyl)-2-phenyl-1H-indol-7-yl]amino]-1-piperidyl]ethanone] here?
**A.** ≤ 300 nM

**Q.** With `COCc1cc(NC2CCC(F)(F)CC2)c2[nH]c(-c3ccccc3)cc2c1` [Example 7, N-(4,4-difluorocyclohexyl)-5-(methoxymethyl)-2-phenyl-1H-indol-7-amine] as the molecule, how does the EC50 read?
**A.** ≤ 300 nM

**Q.** With `COCc1cc(NCc2ccccc2)c2[nH]c(-c3ccccc3)cc2c1` [Example 8, N-benzyl-5-(methoxymethyl)-2-phenyl-1H-indol-7-amine] as the molecule, how does the EC50 read?
**A.** ≤ 300 nM

**Q.** How did the EC50 turn out when `COCc1cc(NC2CCN(C(=O)OC(C)(C)C)CC2)c2[nH]c(-c3ccccc3)cc2c1` [Example 9, tert-butyl 4-[[5-(methoxymethyl)-2-phenyl-1H-indol-7-yl]amino]-piperidine-1-carboxylate] was run?
**A.** ≤ 300 nM

**Q.** `COCc1cc(NC(C)C)c2[nH]c(-c3ccccc3)cc2c1` [Example 10, N-isopropyl-5-(methoxymethyl)-2-phenyl-1H-indol-7-amine] was tested. Which EC50 did it give?
**A.** ≤ 300 nM

**Q.** `COCc1cc(NC2CCN(C)CC2)c2[nH]c(-c3ccccc3)cc2c1` [Example 11, 5-(methoxymethyl)-N-(1-methyl-4-piperidyl)-2-phenyl-1H-indol-7-amine] was tested. Which EC50 did it give?
**A.** ≤ 300 nM

**Q.** `COCCNc1cc(COC)cc2cc(-c3ccccc3)[nH]c12` [Example 12, N-(2-methoxyethyl)-5-(methoxymethyl)-2-phenyl-1H-indol-7-amine] was tested. Which EC50 did it give?
**A.** ≤ 300 nM

**Q.** How did the EC50 turn out when `COCCCNc1cc(COC)cc2cc(-c3ccccc3)[nH]c12` [Example 13, 5-(methoxymethyl)-N-(3-methoxypropyl)-2-phenyl-1H-indol-7-amine] was run?
**A.** ≤ 300 nM

**Q.** For `CC(C)(C)OCc1cc(NC2CCOCC2)c2[nH]c(-c3ccccc3)cc2c1` [Example 15, 5-(tert-butoxymethyl)-2-phenyl-N-tetrahydropyran-4-yl-1H-indol-7-amine], which EC50 is on record?
**A.** ≤ 300 nM

**Q.** `CC(C)(C)OCc1cc(NC2CCCC2)c2[nH]c(-c3ccccc3)cc2c1` [Example 16, 5-(tert-butoxymethyl)-N-cyclopentyl-2-phenyl-1H-indol-7-amine] was tested. Which EC50 did it give?
**A.** ≤ 300 nM

**Q.** With `CC(C)(C)OCc1cc(N(C2CCCC2)C2CCCC2)c2[nH]c(-c3ccccc3)cc2c1` [Example 17, 5-(tert-butoxymethyl)-N,N-dicyclopentyl-2-phenyl-1H-indol-7-amine] as the molecule, how does the EC50 read?
**A.** ≤ 300 nM

**Q.** For `COCc1cc(NC2CCOCC2)c2[nH]cc(-c3ccccc3)c2c1` [Example 18, 5-(methoxymethyl)-3-phenyl-N-tetrahydropyran-4-yl-1H-indol-7-amine], which EC50 is on record?
**A.** ≤ 300 nM

**Q.** `CCOCc1cc(NC2CCOCC2)c2[nH]c(-c3ccccc3)cc2c1` [Example 20, 5-(ethoxymethyl)-2-phenyl-N-(tetrahydro-2H-pyran-4-yl)-1H-indol-7-amine] was tested. Which EC50 did it give?
**A.** ≤ 300 nM

**Q.** With `CC(C)OCc1cc(NC2CCCC2)c2[nH]c(-c3ccccc3)cc2c1` [Example 21, N-cyclopentyl-5-(isopropoxymethyl)-2-phenyl-1H-indol-7-amine] as the molecule, how does the EC50 read?
**A.** ≤ 300 nM

**Q.** `CC(C)OCc1cc(NC2CCOCC2)c2[nH]c(-c3ccccc3)cc2c1` [Example 22, 5-(isopropoxymethyl)-2-phenyl-N-(tetrahydro-2H-pyran-4-yl)-1H-indol-7-amine] was tested. Which EC50 did it give?
**A.** ≤ 300 nM

**Q.** With `CCOCc1cc(NC2CCCC2)c2[nH]c(-c3ccccc3)c(C#N)c2c1` [Example 23, 7-(cyclopentylamino)-5-(ethoxymethyl)-2-phenyl-1H-indole-3-carbonitrile] as the molecule, how does the EC50 read?
**A.** ≤ 300 nM
